Values joined by “and” are separate entries in the source; they are usually repeats but may differ in a detail not shown here. Equal entries are not always repeated. Where two headings read alike, the source gives them in different places.
Biological target: T1, EphB2-EphrinA5 (Mus musculus, UniProt P54763)
T1 sequence (P54763 19-543 limits assumed): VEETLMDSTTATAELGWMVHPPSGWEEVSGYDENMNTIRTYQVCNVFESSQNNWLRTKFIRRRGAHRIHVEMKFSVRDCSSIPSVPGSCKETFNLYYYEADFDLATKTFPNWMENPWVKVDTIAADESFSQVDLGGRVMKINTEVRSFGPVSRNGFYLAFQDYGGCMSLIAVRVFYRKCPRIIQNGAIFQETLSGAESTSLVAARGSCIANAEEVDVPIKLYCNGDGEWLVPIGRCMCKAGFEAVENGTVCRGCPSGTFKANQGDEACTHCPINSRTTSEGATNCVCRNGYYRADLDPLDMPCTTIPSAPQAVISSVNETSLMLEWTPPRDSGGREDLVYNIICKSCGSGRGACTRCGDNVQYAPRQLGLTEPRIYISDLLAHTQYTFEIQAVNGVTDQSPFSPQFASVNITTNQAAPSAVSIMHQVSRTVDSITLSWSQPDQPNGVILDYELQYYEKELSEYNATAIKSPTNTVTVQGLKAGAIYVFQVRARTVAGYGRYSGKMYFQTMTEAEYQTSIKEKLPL
Assay: Octet, immobilized EphB2 binding to human EphrinA5
Conditions: for IC50: mEphB2-hEphrinA5, immobilized mouse EphB2, 50 nM soluble human EphrinA5
Procedure: The Octet system was used to probe the interactions of epitope-tagged human A class proteins, focusing on immobilized EphA3 binding to two of its cognate ligands, EphrinA1 and EphrinA5, as well as EphB2 binding to EphrinA5 (FIG. 27). […] Focusing on the dimerization-driven EphA3-EA5 interaction first (green sensorgram trace), which mimics what is disclosed above for EphB4-EB2, the initial binding of soluble EphrinA5 to the immobilized EphA3 is very fast and strong with a long and steep 84° slope of response that then quickly bends around 35 sec into the association step to form a more gradual tetramerization accumulation slope. […] However, again like the EphB4-EB2 interaction, once placed into dissociation, a significant fraction of the bound EA5 protein melts quickly and the off phase continues downward with a slow gradual decline in bound protein. Although the dissociation was for only 500 sec, the continued downward slope of the response indicates most of the bound EA5 protein would eventually melt off of the immobilized EphA3 protein. This is referred to as a classic dimerization-driven interaction, fast and strong initial binding in the association step but with most of the bound protein coming off in the dissociation due to lack of formation of stable tetramers. EphA3 interacts with EphrinA1 with totally different kinetics/dynamics (orange sensorgram trace). Here, the initial high 84° dimerization slope phase is extremely brief (5 sec) with the binding quickly snapping into a linear tetramerization accumulation phase with a 25° slope, and that once placed into dissociation step almost no bound protein melts, just the small amount that would represent dimer interactions falling off in the first few seconds after being placed into dissociation. […] EphB2 interacting with EA5 is similar to the EphA3-EA1 interaction, in that the association step is characterized by a very brief (5 sec) high 84° slope phase that quickly bends into a more gradual tetramer accumulation phase (blue sensorgram trace). […] The strong initial off phase of the EphB2-EA5 complexes in the dissociation represents both the melting of weak dimers and of the relatively weaker affinity tetramers formed by the cross A/B class EphB2-EA5 molecules. […]
The novel compound A20-I is a halogen replacement that changes the 7-bromine in A20 for iodine and had enhanced tetramerization inhibitor activity (FIGS. 38A-38D). This is evident when comparing results of A20-I and A20 salt compounds on the interaction of immobilized mouse EphB2 ectodomain binding to soluble mouse EphrinB2 ectodomain (FIG. 38A and FIG. 38B) or soluble human EphrinA5 (FIG. 38C). […] During these interactions of immobilized EphB ectodomains binding to soluble EphrinB2, the tetramer is much more surmountable by addition of an active compound than for the reverse experiment where EphrinB2 is immobilized and EphB2 is the soluble component in the assay (see FIG. 11, FIG. 17, and FIG. 25A-FIG. 25C). It is believed that the more resistant unsurmountable tetramer formed by immobilized EphrinB2 binding to soluble EphB ectodomains provides for the most rigorous test for determining IC50 values and thus utilizing this EphrinB2-EphB2 assay for analysis of all compounds, provide uniformity in observed results. The results described herein with A20-I and using the human EphrinB2-EphB2 interaction indicates replacements can be made in the 7-bromine in A20 that lead to enhanced tetramerization inhibitor activity.

[1] = association, absolute, read-out: Absolute Association IC50
[2] = association, relative, read-out: Relative Association IC50
[3] = dissociation, absolute, read-out: Absolute Dissociation IC50
[4] = dissociation, relative, read-out: Relative Dissociation IC50

With `O=S1(=O)CCN(Cc2ccc(O)c3ncccc23)CC1` [Compound 15, 4-((8-hydroxyquinolin-1-ium-5-yl)methyl)thiomorpholin-4-ium 1,1-dioxide chloride] the IC50 [1] was 7.04 µM, the IC50 [2] was > 1 µM and the IC50 [3] was 8.4 µM. For the same compound, the IC50 [4] was > 1 µM.
For `O=[N+]([O-])c1cc(CN2CCOCC2)c2cccnc2c1O` [Compound 10, 4-((8-hydroxy-7-nitroquinolin-1-ium-5-yl)methyl)morpholin-4-ium chloride], the IC50 [1] was 4.24 µM, the IC50 [2] was 2.9 µM and the IC50 [3] was 100 µM. It also gave an IC50 [4] of 100 µM.
For `Oc1c(Br)cc(CN2CCOCC2)c2cccnc12` [Compound 6, 4-((7-bromo-8-hydroxyquinolin-1-ium-5-yl)methyl)morpholin-4-ium chloride], the IC50 [1] was 0.57 µM and the IC50 [3] was < 1 µM.
In the case of `Oc1c(I)cc(CN2CCOCC2)c2cccnc12` [Compound 8, 4-((8-hydroxy-7-iodoquinolin-1-ium-5-yl)methyl)morpholin-4-ium chloride], the IC50 [1] is reported as 0.42 µM and 1.59 µM, the IC50 [2] is reported as 0.22 µM and 0.83 µM and the IC50 [3] is reported as 0.09 µM. For the same compound, the IC50 [4] was 0.08 µM.
With `Oc1c(Br)cc(CN2CCOCC2)c2cccnc12` [Compound 5, 7-bromo-5-(morpholinomethyl)quinolin-8-ol] the “formation of stable tetramers” value (1 μM) was “completely inhibited the formation of stable tetramers”.
`Oc1c(Cl)cc(CN2CCOCC2)c2cccnc12` [Compound 4, 4-((7-chloro-8-hydroxyquinolin-1-ium-5-yl)methyl)morpholin-4-ium chloride] was tested, and the IC50 [1] was < 1 µM, the IC50 [2] was < 1 µM and the IC50 [3] was < 1 µM. For the same compound, the IC50 [4] was < 1 µM.
`Oc1ccc(CN2CCN(Cc3ccc(C(F)(F)F)cc3)CC2)c2cccnc12` [Compound 48, 5-((4-(4-(trifluoromethyl)benzyl)piperazin-1-yl)methyl)quinolin-8-ol] was tested, and the IC50 [1] was 8.24 µM, the IC50 [2] was > 1 µM and the IC50 [3] was 1 µM. It also gave an IC50 [4] of 1 µM.

— patent US20260374739A1, “SMALL MOLECULAR WEIGHT CHEMICAL COMPOUND TO ANTAGONIZE EPH-EPHRIN TETRAMERIZATION AND INHIBIT BIDIRECTIONAL SIGNALING” (THE BOARD OF REGENTS OF THE UNIVERSITY OF TEXAS SYSTEM, priority 2022, published 2026)
